Assay results taken from patent US20240208956A1, “1,3,4-OXADIAZOLE THIOCARBONYL COMPOUNDS AS HISTONE DEACETYLASE 6 INHIBITOR, AND PHARMACEUTICAL COMPOSITION COMPRISING THE SAME” (CHONG KUN DANG PHARMACEUTICAL CORP., priority 2021, published 2024).

Experiments:
HDAC6 human recombinant = HDAC6 human recombinant (Homo sapiens (Human), UniProt Q9UBN7); assay: HDAC enzyme activity inhibition (in vitro), HDAC6 fluorimetric assay; format: biochemical; conditions: samples at 0.1-1000 nM; 37° C. 60 minutes; fluorescence Ex 390 nm, Em 460 nm
Chain of HDAC6 human recombinant (Q9UBN7 whole entry): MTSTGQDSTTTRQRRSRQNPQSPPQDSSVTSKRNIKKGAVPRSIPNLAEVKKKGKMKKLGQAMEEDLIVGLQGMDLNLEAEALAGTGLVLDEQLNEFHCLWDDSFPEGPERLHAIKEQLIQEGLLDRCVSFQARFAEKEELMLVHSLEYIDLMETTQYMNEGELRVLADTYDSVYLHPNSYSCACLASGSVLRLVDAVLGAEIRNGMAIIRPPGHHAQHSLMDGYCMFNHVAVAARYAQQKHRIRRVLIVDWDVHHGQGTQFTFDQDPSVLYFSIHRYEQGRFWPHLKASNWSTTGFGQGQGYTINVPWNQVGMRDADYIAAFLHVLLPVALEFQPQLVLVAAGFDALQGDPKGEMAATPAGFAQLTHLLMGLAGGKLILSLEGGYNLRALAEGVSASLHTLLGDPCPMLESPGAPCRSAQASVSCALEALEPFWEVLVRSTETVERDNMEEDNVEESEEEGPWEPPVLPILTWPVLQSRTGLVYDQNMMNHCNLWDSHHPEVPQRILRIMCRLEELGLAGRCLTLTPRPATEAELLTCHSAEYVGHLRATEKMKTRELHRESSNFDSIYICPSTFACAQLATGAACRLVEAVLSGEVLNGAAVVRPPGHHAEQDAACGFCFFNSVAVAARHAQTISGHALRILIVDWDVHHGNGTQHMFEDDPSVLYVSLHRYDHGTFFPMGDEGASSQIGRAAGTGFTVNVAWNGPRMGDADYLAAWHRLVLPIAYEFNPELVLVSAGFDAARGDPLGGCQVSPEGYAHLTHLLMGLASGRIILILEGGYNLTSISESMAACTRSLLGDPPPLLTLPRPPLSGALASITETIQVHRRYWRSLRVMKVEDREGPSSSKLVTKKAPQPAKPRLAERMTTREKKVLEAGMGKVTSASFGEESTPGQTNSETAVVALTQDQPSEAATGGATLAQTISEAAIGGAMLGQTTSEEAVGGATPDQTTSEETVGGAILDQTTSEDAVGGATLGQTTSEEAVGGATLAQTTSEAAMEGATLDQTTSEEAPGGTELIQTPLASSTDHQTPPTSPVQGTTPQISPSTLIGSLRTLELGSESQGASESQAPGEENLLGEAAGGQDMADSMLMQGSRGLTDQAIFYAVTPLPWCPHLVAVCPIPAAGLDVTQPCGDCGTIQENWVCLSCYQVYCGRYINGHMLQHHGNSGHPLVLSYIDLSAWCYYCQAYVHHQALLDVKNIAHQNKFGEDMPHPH
Description: Confirmation of HDAC Enzyme Activity Inhibition (In Vitro)
(§1) An HDAC enzyme inhibitory capacity of test material was measured by using HDAC1 Fluorimetric Drug Discovery Assay Kit (Enzolifesciences: BML-AK511) and HDAC6 human recombinant (Calbiochem: 382180). For a HDAC1 assay, samples were treated at a concentration of 100 nM, 1000 nM and 10000 nM. For an HDAC6 assay, samples were treated at a concentration of 0.1 nM, 1 nM, 10 nM, 100 nM and 1000 nM. After the sample treatment, a reaction was continued at 37° C. for 60 minutes, treated with a developer, and subjected to reaction at 37° C. for 30 minutes, after which fluorescence intensity (Ex 390 nm, Em 460 nm) was measured by using FlexStation3 (Molecular device). For final result values, each […] value was calculated with GraphPad Prism 4.0 program.

HDAC1 = HDAC1 (Homo sapiens (Human), UniProt Q13547); assay: HDAC enzyme activity inhibition (in vitro), HDAC1 Fluorimetric Drug Discovery Assay Kit; format: biochemical; conditions: samples at 100, 1000 and 10000 nM; 37° C. 60 minutes; fluorescence Ex 390 nm, Em 460 nm
Chain of HDAC1 (Q13547 whole entry): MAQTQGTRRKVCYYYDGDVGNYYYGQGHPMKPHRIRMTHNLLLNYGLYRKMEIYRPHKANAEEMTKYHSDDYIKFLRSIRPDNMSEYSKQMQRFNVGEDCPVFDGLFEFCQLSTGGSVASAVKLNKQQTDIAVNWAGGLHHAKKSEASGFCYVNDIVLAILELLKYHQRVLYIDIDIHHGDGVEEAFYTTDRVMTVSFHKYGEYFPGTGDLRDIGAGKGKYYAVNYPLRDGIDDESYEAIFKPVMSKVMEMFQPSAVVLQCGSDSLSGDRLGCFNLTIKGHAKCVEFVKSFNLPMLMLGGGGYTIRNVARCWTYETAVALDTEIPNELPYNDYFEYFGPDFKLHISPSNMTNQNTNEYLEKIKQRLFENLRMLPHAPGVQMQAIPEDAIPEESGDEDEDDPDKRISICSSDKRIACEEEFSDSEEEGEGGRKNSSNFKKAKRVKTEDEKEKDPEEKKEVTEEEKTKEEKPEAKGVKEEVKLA
Description: Experimental Example 1. Confirmation of HDAC Enzyme Activity Inhibition (In Vitro)
as §1

| IC50 (HDAC6 human recombinant) [nM] | IC50 (HDAC1) [nM] | Structure (SMILES) |
| --- | --- | --- |
| 70 | > 10000 | CC(C)N1CC2(CN(C(=S)N(Cc3ccc(-c4nnc(C(F)F)o4)cc3)c3ccc(F)cc3)C2)C1 [Compound 21, N-(4-(5-(difluoromethyl)-1,3,4-oxadiazol-2-yl)benzyl)-N-(4-fluorophenyl)-6-isopropyl-2,6-diazaspiro[3.3]heptan-2-carbothioamide] |
| 112 | > 10000 | Fc1ccc(N(Cc2ccc(-c3nnc(C(F)F)o3)cc2)C(=S)N2CC3(C2)CN(C2COC2)C3)cc1Cl [Compound 27, N-(3-chloro-4-fluorophenyl)-N-(4-(5-(difluoromethyl)-1,3,4-oxadiazol-2-yl)benzyl)-6-(oxetan-3-yl)-2,6-diazaspiro[3.3]heptan-2-carbothioamide] |
| 35 | > 10000 | CC(C)N1CC2(CN(C(=S)N(Cc3ccc(-c4nnc(C(F)F)o4)cc3)c3ccc(F)c(F)c3)C2)C1 [Compound 31, N-(4-(5-(difluoromethyl)-1,3,4-oxadiazol-2-yl)benzyl)-N-(3,4-difluorophenyl)-6-isopropyl-2,6-diazaspiro[3.3]heptan-2-carbothioamide] |
| 89 | > 10000 | CN1CC2(C1)CN(C(=S)N(Cc1ccc(-c3nnc(C(F)F)o3)cc1)c1ccc(F)c(Cl)c1)C2 [Compound 26, N-(3-chloro-4-fluorophenyl)-N-(4-(5-(difluoromethyl)-1,3,4-oxadiazol-2-yl)benzyl)-6-methyl-2,6-diazaspiro[3.3]heptan-2-carbothioamide] |
| 70 | > 10000 | CC(C)N1CC2(CN(C(=S)N(Cc3ccc(-c4nnc(C(F)F)o4)cc3)c3ccc(F)c(Cl)c3)C2)C1 [Compound 29, N-(3-chloro-4-fluorophenyl)-N-(4-(5-(difluoromethyl)-1,3,4-oxadiazol-2-yl)benzyl)-6-isopropyl-2,6-diazaspiro[3.3]heptan-2-carbothioamide] |
| 66 | > 10000 | FC(F)c1nnc(-c2ccc(CN(C(=S)N3CCOCC3)c3ccccc3)nc2)o1 [Compound 2, N-((5-(5-(difluoromethyl)-1,3,4-oxadiazol-2-yl)pyridin-2-yl)methyl)-N-phenylmorpholin-4-carbothioamide] |
| 54 | > 10000 | Fc1ccc(N(Cc2ccc(-c3nnc(C(F)F)o3)cc2F)C(=S)N2CC3(C2)CN(C2COC2)C3)cc1 [Compound 19, N-(4-(5-(difluoromethyl)-1,3,4-oxadiazol-2-yl)-2-fluorobenzyl)-N-(4-fluorophenyl)-6-(oxetan-3-yl)-2,6-diazaspiro[3.3]heptan-2-carbothioamide] |
| 37 | > 10000 | FC(F)c1nnc(-c2ccc(CN(C(=S)N3CCN(C4COC4)CC3)c3ccccc3)cc2)o1 [Compound 5, N-(4-(5-(difluoromethyl)-1,3,4-oxadiazol-2-yl)benzyl)-4-(oxetan-3-yl)-N-phenylpiperazin-1-carbothioamide] |
| 50 | > 10000 | Fc1cc(-c2nnc(C(F)F)o2)ccc1CN(C(=S)N1CC2(C1)CN(C1COC1)C2)c1ccccc1 [Compound 11, N-(4-(5-(difluoromethyl)-1,3,4-oxadiazol-2-yl)-2-fluorobenzyl)-6-(oxetan-3-yl)-N-phenyl-2,6-diazaspiro[3.3]heptan-2-carbothioamide] |
| 31 | > 10000 | O=S1(=O)CCN(C(=S)N(Cc2ccc(-c3nnc(C(F)F)o3)cn2)c2ccccc2)CC1 [Compound 6, N-((5-(5-(difluoromethyl)-1,3,4-oxadiazol-2-yl)pyridin-2-yl)methyl)-N-phenylthiomorpholin-4-carbothioamide 1,1-dioxide] |
| 43 | > 10000 | CN1CC2(C1)CN(C(=S)N(Cc1ccc(-c3nnc(C(F)F)o3)cc1F)c1cccc(F)c1)C2 [Compound 36, N-(4-(5-(difluoromethyl)-1,3,4-oxadiazol-2-yl)-2-fluorobenzyl)-N-(3-fluorophenyl)-6-methyl-2,6-diazaspiro[3.3]heptan-2-carbothioamide] |
